Assay results reported in publication PMC6154583, “Optimized 4,5-Diarylimidazoles as Potent/Selective Inhibitors of Protein Kinase CK1δ and Their Structural Relation to p38α MAPK” (Molecules : A Journal of Synthetic Chemistry and Natural …, 2017).

Assays:
[1] = molecular target: EEF2K (Homo sapiens, UniProt O00418); assay: ProQinase 33PanQinase selectivity profiling; type: biochemical; conditions: 100 nM, relative to control, read-out: Residual activity (%)
[2] = molecular target: DCAMKL2 (Homo sapiens, UniProt Q8N568); assay: ProQinase 33PanQinase selectivity profiling; type: biochemical; conditions: 100 nM, relative to control, read-out: Residual activity (%)
[3] = molecular target: T1, ACV-R2A (Homo sapiens, UniProt P27037); assay: ProQinase 33PanQinase selectivity profiling; type: biochemical; conditions: 100 nM, relative to control, read-out: Residual activity (%)
T1 construct: purchased ProQinase GmbH (Freiburg, Germany)

[4] = molecular target: DNA-PK (Homo sapiens, UniProt P78527); assay: ProQinase 33PanQinase selectivity profiling; type: biochemical; conditions: 100 nM, relative to control, read-out: Residual activity (%)
[5] = molecular target: RIPK2 (Homo sapiens, UniProt O43353); assay: ProQinase 33PanQinase selectivity profiling; type: biochemical; conditions: 100 nM, relative to control, read-out: residual activity
[6] = molecular target: DYRK3 (Homo sapiens, UniProt O43781); assay: ProQinase 33PanQinase selectivity profiling; type: biochemical; conditions: 100 nM, relative to control, read-out: Residual activity (%)
[7] = molecular target: ARK5 (Homo sapiens, UniProt O60285); assay: ProQinase 33PanQinase selectivity profiling; type: biochemical; conditions: 100 nM, relative to control, read-out: Residual activity (%)
[8] = molecular target: CDK5/p25NCK (Homo sapiens, UniProt Q00535); assay: ProQinase 33PanQinase selectivity profiling; type: biochemical; conditions: 100 nM, relative to control, read-out: Residual activity (%)
[9] = molecular target: CLK2 (Homo sapiens, UniProt P49760); assay: ProQinase 33PanQinase selectivity profiling; type: biochemical; conditions: 100 nM, relative to control, read-out: Residual activity (%)
[10] = molecular target: LCK (Homo sapiens, UniProt P06239); assay: ProQinase 33PanQinase selectivity profiling; type: biochemical; conditions: 100 nM, relative to control, read-out: residual activity
[11] = molecular target: EPHA3 (Homo sapiens, UniProt P29320); assay: ProQinase 33PanQinase selectivity profiling; type: biochemical; conditions: 100 nM, relative to control, read-out: Residual activity (%)
[12] = molecular target: DYRK4 (Homo sapiens, UniProt Q9NR20); assay: biochemical; conditions: read-out: Residual activity (%)
[13] = molecular target: CDK6/CycD1 (Homo sapiens, UniProt Q00534); assay: ProQinase 33PanQinase selectivity profiling; type: biochemical; conditions: 100 nM, relative to control, read-out: Residual activity (%)
[14] = molecular target: CDK9/CycT1 (Homo sapiens, UniProt P50750); assay: ProQinase 33PanQinase selectivity profiling; type: biochemical; conditions: 100 nM, relative to control, read-out: Residual activity (%)
[15] = molecular target: EPHA2 (Homo sapiens, UniProt P29317); assay: ProQinase 33PanQinase selectivity profiling; type: biochemical; conditions: 100 nM, relative to control, read-out: Residual activity (%)
[16] = molecular target: B-RAF (Homo sapiens, UniProt P15056); assay: ProQinase 33PanQinase selectivity profiling; type: biochemical; conditions: 100 nM, relative to control, read-out: Residual activity (%)
[17] = molecular target: Aurora-A (Homo sapiens, UniProt O14965); assay: ProQinase 33PanQinase selectivity profiling; type: biochemical; conditions: 100 nM, relative to control, read-out: Residual activity (%)
[18] = molecular target: CAMKK1 (Homo sapiens, UniProt Q8N5S9); assay: ProQinase 33PanQinase selectivity profiling; type: biochemical; conditions: 100 nM, relative to control, read-out: Residual activity (%)
[19] = molecular target: BRSK1 (Homo sapiens, UniProt Q8TDC3); assay: ProQinase 33PanQinase selectivity profiling; type: biochemical; conditions: 100 nM, relative to control, read-out: Residual activity (%)
[20] = molecular target: DMPK (Homo sapiens, UniProt Q09013); assay: ProQinase 33PanQinase selectivity profiling; type: biochemical; conditions: 100 nM, relative to control, read-out: Residual activity (%)
[21] = system: panel of 321 protein kinases; assay: Selectivity profiling in a panel of 321 protein kinases (ProQinase); type: biochemical; conditions: 100 nM
[22] = molecular target: CDK8/CycC (Homo sapiens, UniProt P49336); assay: ProQinase 33PanQinase selectivity profiling; type: biochemical; conditions: 100 nM, relative to control, read-out: Residual activity (%)
[23] = molecular target: JNK3 (Homo sapiens, UniProt P53779); assay: ProQinase 33PanQinase selectivity profiling; type: biochemical; conditions: 100 nM, relative to control, read-out: residual activity
[24] = molecular target: CDK19/CycC (Homo sapiens, UniProt Q9BWU1); assay: ProQinase 33PanQinase selectivity profiling; type: biochemical; conditions: 100 nM, relative to control, read-out: Residual activity (%)
[25] = molecular target: CDK5/p35NCK (Homo sapiens, UniProt Q00535); assay: ProQinase 33PanQinase selectivity profiling; type: biochemical; conditions: 100 nM, relative to control, read-out: Residual activity (%)
[26] = molecular target: EGF-R (Homo sapiens, UniProt P00533); assay: ProQinase 33PanQinase selectivity profiling; type: biochemical; conditions: 100 nM, relative to control, read-out: Residual activity (%)
[27] = molecular target: JNK2 (Homo sapiens, UniProt P45984); assay: ProQinase 33PanQinase selectivity profiling; type: biochemical; conditions: 100 nM, relative to control, read-out: residual activity
[28] = molecular target: T2, CHK2 (Homo sapiens, UniProt O96017); assay: ProQinase 33PanQinase selectivity profiling; type: biochemical; conditions: 100 nM, relative to control, read-out: Residual activity (%)
T2 construct: purchased ProQinase GmbH

[29] = molecular target: T3, BRK (Homo sapiens, UniProt Q13882); assay: ProQinase 33PanQinase selectivity profiling; type: biochemical; conditions: 100 nM, relative to control, read-out: Residual activity (%)
T3 construct: purchased ProQinase GmbH

[30] = molecular target: CSK (Homo sapiens, UniProt P41240); assay: ProQinase 33PanQinase selectivity profiling; type: biochemical; conditions: 100 nM, relative to control, read-out: Residual activity (%)
[31] = molecular target: CHK1 (Homo sapiens, UniProt O14757); assay: ProQinase 33PanQinase selectivity profiling; type: biochemical; conditions: 100 nM, relative to control, read-out: Residual activity (%)
[32] = molecular target: CK2-alpha2 (Homo sapiens, UniProt P19784); assay: ProQinase 33PanQinase selectivity profiling; type: biochemical; conditions: 100 nM, relative to control, read-out: Residual activity (%)
[33] = molecular target: T4, ACV-R2B (Homo sapiens, UniProt Q13705); assay: ProQinase 33PanQinase selectivity profiling; type: biochemical; conditions: 100 nM, relative to control, read-out: Residual activity (%)
T4 construct: purchased ProQinase GmbH (Freiburg, Germany)

[34] = molecular target: CK1-gamma1 (Homo sapiens, UniProt Q9HCP0); assay: ProQinase 33PanQinase selectivity profiling; type: biochemical; conditions: 100 nM, relative to control
[35] = molecular target: B-RAF V600E (Homo sapiens, UniProt P15056, V600E); assay: ProQinase 33PanQinase selectivity profiling; type: biochemical; conditions: 100 nM, relative to control, read-out: Residual activity (%)
[36] = molecular target: T5, COT (Homo sapiens, UniProt P41279); assay: ProQinase 33PanQinase selectivity profiling; type: biochemical; conditions: 100 nM, relative to control, read-out: Residual activity (%)
T5 construct: purchased ProQinase GmbH

[37] = molecular target: CAMK2G (Homo sapiens, UniProt Q13555); assay: ProQinase 33PanQinase selectivity profiling; type: biochemical; conditions: 100 nM, relative to control, read-out: Residual activity (%)
[38] = molecular target: T6, BMPR1A (Homo sapiens, UniProt P36894); assay: ProQinase 33PanQinase selectivity profiling; type: biochemical; conditions: 100 nM, relative to control, read-out: Residual activity (%)
T6 construct: purchased ProQinase GmbH

[39] = molecular target: CLK4 (Homo sapiens, UniProt Q9HAZ1); assay: ProQinase 33PanQinase selectivity profiling; type: biochemical; conditions: 100 nM, relative to control, read-out: Residual activity (%)
[40] = molecular target: T7, CDC42BPB (Homo sapiens, UniProt Q9Y5S2); assay: ProQinase 33PanQinase selectivity profiling; type: biochemical; conditions: 100 nM, relative to control, read-out: Residual activity (%)
T7 construct: purchased ProQinase GmbH

[41] = molecular target: ACV-R1 (Homo sapiens, UniProt Q04771); assay: ProQinase 33PanQinase selectivity profiling; type: biochemical; conditions: 100 nM, relative to control, read-out: Residual activity (%)
[42] = molecular target: T8, EIF2AK3 (Homo sapiens, UniProt Q9NZJ5); assay: ProQinase 33PanQinase selectivity profiling; type: biochemical; conditions: 100 nM, relative to control, read-out: Residual activity (%)
T8 construct: purchased ProQinase GmbH

[43] = molecular target: CK1-alpha1 (Homo sapiens, UniProt P48729); assay: ProQinase 33PanQinase selectivity profiling; type: biochemical; conditions: 100 nM, relative to control, read-out: Residual activity (%)
Chain of CK1-alpha1 (P48729 whole entry): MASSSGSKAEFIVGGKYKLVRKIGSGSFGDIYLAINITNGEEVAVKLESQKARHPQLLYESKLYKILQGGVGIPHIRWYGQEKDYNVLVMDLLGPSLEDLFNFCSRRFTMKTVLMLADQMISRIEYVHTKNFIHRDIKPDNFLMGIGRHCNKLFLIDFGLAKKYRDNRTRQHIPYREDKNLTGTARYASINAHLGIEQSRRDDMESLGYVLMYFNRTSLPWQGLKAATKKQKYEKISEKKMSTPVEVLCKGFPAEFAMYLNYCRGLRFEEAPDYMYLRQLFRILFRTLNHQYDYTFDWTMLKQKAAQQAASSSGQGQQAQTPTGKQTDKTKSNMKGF

Chain of CK1-gamma1 (Q9HCP0 whole entry): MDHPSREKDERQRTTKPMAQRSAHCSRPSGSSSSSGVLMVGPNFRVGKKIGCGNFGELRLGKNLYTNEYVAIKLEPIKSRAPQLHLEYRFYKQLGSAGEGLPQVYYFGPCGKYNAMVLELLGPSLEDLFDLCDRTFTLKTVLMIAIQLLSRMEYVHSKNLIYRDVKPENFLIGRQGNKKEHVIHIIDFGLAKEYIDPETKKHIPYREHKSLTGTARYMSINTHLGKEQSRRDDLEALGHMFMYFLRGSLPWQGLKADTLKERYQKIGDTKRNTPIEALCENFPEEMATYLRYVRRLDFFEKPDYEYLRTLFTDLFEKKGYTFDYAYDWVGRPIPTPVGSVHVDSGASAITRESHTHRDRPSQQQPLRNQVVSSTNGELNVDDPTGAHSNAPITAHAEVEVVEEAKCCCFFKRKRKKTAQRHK
Chain of EEF2K (O00418 whole entry): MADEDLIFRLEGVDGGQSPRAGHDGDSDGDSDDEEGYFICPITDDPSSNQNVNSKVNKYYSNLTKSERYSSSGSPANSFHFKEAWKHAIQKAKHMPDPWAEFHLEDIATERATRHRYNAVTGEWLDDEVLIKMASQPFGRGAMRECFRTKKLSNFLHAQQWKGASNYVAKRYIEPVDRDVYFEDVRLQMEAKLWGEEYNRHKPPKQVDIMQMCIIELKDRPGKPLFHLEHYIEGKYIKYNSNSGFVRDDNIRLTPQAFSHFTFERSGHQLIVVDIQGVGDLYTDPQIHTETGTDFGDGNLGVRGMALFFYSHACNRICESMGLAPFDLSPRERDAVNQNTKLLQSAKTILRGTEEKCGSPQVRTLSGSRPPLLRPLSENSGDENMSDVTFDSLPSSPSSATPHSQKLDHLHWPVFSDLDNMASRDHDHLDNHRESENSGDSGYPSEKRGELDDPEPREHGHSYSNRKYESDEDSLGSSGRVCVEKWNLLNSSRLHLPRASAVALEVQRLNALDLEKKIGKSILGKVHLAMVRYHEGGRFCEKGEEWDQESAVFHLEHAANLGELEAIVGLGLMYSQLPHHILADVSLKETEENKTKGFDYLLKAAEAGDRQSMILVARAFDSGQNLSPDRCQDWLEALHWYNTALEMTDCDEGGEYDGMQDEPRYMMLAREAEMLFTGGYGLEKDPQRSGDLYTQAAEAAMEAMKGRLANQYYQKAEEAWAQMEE
Chain of CDK8/CycC (P49336 whole entry): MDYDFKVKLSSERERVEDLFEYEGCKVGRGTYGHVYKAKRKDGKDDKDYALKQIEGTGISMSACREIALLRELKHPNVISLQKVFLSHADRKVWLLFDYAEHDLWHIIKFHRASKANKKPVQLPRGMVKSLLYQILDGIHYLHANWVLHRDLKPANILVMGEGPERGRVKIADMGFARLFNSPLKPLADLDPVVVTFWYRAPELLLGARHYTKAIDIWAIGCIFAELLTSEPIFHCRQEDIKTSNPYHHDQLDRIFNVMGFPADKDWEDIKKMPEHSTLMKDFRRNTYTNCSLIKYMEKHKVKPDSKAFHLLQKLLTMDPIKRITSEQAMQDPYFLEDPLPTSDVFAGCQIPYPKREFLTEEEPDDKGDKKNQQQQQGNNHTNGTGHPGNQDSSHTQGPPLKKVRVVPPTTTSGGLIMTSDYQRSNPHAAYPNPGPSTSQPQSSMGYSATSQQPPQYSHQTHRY
Chain of CDK8/CycC (P24863 whole entry partner): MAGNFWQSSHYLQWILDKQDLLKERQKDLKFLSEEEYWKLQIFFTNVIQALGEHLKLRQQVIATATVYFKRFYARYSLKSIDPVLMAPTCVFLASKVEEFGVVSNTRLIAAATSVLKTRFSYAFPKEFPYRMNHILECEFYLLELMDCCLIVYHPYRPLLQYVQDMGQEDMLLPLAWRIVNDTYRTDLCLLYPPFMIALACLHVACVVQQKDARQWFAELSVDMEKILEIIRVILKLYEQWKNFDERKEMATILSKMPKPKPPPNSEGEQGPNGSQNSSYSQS
Chain of CDK9/CycT1 (P50750 whole entry): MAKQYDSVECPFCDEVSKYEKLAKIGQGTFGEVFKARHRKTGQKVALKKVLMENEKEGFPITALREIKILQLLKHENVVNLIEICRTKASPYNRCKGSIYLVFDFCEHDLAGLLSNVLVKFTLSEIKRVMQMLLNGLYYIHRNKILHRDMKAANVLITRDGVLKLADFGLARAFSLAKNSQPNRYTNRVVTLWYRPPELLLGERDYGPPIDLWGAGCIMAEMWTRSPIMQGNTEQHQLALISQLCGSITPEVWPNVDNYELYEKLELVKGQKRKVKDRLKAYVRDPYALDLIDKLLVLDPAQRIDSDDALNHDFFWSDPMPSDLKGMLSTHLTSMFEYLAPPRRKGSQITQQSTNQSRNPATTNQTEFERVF
Chain of CDK9/CycT1 (O60563 whole entry partner): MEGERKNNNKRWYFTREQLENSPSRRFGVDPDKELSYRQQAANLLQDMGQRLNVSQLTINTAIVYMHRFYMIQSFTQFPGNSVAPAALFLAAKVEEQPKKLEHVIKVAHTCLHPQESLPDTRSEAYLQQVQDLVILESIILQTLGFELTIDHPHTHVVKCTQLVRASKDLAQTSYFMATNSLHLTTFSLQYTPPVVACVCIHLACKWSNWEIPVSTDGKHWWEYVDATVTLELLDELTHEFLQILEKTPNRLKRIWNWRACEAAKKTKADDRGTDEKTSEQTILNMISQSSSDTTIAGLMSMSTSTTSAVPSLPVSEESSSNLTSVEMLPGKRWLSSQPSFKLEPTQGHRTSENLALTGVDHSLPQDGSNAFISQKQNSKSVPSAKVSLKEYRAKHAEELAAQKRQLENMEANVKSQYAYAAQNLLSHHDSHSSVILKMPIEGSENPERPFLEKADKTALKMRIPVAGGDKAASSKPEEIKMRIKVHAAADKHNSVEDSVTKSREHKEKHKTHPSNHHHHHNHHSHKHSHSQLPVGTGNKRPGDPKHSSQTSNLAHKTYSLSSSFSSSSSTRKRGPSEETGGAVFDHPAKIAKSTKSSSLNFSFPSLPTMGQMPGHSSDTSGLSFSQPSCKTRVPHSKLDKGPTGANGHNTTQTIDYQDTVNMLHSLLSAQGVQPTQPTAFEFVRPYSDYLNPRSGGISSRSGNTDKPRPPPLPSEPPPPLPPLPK
Chain of CLK2 (P49760 whole entry): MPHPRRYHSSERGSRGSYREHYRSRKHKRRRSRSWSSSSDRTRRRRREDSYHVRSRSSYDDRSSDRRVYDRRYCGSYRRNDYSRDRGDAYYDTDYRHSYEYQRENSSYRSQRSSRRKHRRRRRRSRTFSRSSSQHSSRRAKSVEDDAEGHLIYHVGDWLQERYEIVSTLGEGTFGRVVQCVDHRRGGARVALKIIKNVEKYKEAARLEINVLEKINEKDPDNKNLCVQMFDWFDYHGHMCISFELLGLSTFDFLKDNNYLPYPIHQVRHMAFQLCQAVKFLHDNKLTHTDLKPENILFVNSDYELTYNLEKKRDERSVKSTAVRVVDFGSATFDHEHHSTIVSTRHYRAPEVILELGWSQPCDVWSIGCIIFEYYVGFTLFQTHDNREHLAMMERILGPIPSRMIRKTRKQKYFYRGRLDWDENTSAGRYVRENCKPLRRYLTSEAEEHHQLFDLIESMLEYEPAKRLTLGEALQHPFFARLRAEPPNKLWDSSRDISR
Chain of CDK19/CycC (Q9BWU1 whole entry): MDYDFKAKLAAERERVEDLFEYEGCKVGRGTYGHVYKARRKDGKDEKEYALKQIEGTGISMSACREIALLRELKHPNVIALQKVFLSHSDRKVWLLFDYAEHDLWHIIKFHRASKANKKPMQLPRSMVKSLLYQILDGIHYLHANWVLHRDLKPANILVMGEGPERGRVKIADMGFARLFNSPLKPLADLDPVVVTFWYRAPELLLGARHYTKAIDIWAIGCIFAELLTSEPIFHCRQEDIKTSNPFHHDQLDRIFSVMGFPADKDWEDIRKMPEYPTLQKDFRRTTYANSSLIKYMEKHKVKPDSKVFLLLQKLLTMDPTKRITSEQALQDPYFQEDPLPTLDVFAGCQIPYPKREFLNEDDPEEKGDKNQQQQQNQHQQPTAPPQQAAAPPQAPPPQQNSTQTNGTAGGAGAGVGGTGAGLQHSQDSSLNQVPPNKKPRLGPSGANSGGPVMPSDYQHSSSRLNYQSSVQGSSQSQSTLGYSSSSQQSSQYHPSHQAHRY
Chain of CDK19/CycC (P24863 whole entry partner): as the sequence (P24863 whole entry partner) above
Chain of JNK2 (P45984 whole entry): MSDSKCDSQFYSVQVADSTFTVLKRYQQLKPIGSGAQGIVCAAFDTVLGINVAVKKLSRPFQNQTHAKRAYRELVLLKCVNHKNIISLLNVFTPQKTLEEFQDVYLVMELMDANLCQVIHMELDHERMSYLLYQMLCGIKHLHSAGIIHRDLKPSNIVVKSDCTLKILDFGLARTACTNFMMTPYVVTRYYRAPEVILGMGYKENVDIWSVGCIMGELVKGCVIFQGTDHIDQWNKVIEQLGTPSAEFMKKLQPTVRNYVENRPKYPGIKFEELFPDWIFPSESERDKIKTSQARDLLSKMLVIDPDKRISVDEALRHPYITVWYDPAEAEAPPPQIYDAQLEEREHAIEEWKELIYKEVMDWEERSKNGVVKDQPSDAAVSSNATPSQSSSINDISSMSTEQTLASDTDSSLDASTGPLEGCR

**Q.** How did the remaining activity at 0.1 µM [1] turn out when COc1ccc(OC)c(CCC(=O)Nc2cc(-c3nc(SC)[nH]c3-c3ccc(F)cc3)ccn2)c1 [11b, 3-(2,5-Dimethoxyphenyl)-N-(4-(5-(4-fluorophenyl)-2-(methylthio)-1H-imidazol-4-yl)-pyridin-2-yl)-propanamide] was run?
**A.** 84%

**Q.** What about the remaining activity at 0.1 µM [2] of the same molecule?
**A.** 94%

**Q.** And the remaining activity at 0.1 µM [3]?
**A.** 98%

**Q.** What about the remaining activity at 0.1 µM [4] of the same molecule?
**A.** 95%

**Q.** And the remaining activity at 0.1 µM [5]?
**A.** 45%

**Q.** What about the remaining activity at 0.1 µM [6] of the same molecule?
**A.** 97%

**Q.** And the remaining activity at 0.1 µM [7]?
**A.** 88%

**Q.** What about the remaining activity at 0.1 µM [8] of the same molecule?
**A.** 117%

**Q.** What about the remaining activity at 0.1 µM [9] of the same molecule?
**A.** 101%

**Q.** And the remaining activity at 0.1 µM [10]?
**A.** 26%

**Q.** What about the remaining activity at 0.1 µM [11] of the same molecule?
**A.** 97%

**Q.** What about the remaining activity at 0.1 µM [12] of the same molecule?
**A.** 100%

**Q.** And the remaining activity at 0.1 µM [13]?
**A.** 105%

**Q.** And the remaining activity at 0.1 µM [14]?
**A.** 93%

**Q.** And the remaining activity at 0.1 µM [15]?
**A.** 95%

**Q.** What about the remaining activity at 0.1 µM [16] of the same molecule?
**A.** 91%

**Q.** And the remaining activity at 0.1 µM [17]?
**A.** 93%

**Q.** What about the remaining activity at 0.1 µM [18] of the same molecule?
**A.** 99%

**Q.** And the remaining activity at 0.1 µM [19]?
**A.** 89%

**Q.** And the remaining activity at 0.1 µM [20]?
**A.** 103%

**Q.** And the “selectivity score S(50)” value ([21]; 321 protein kinases, calculated in accordance to Karaman et al.)?
**A.** 0.027

**Q.** And the “additional kinases with residual activities less than 50% apart from CK1δ and CK1ε” value ([21]; panel of 321 protein kinases)?
**A.** six

**Q.** And the remaining activity at 0.1 µM [22]?
**A.** 90%

**Q.** What about the remaining activity at 0.1 µM [23] of the same molecule?
**A.** 37%

**Q.** What about the remaining activity at 0.1 µM [24] of the same molecule?
**A.** 86%

**Q.** What about the remaining activity at 0.1 µM [25] of the same molecule?
**A.** 85%

**Q.** What about the remaining activity at 0.1 µM [26] of the same molecule?
**A.** 113%

**Q.** And the remaining activity at 0.1 µM [27]?
**A.** 21%

**Q.** And the remaining activity at 0.1 µM [28]?
**A.** 98%

**Q.** What about the remaining activity at 0.1 µM [29] of the same molecule?
**A.** 98%

**Q.** What about the remaining activity at 0.1 µM [30] of the same molecule?
**A.** 101%

**Q.** What about the remaining activity at 0.1 µM [31] of the same molecule?
**A.** 92%

**Q.** And the remaining activity at 0.1 µM [32]?
**A.** 90%

**Q.** What about the remaining activity at 0.1 µM [33] of the same molecule?
**A.** 97%

**Q.** And the “Residual activity (%)” value [34]?
**A.** unaffected

**Q.** What about the remaining activity at 0.1 µM ([34]; read-out: Residual activity (%)) of the same molecule?
**A.** 100%

**Q.** What about the remaining activity at 0.1 µM [35] of the same molecule?
**A.** 102%

**Q.** What about the remaining activity at 0.1 µM [36] of the same molecule?
**A.** 111%

**Q.** What about the remaining activity at 0.1 µM [37] of the same molecule?
**A.** 105%

**Q.** And the remaining activity at 0.1 µM [38]?
**A.** 102%

**Q.** And the remaining activity at 0.1 µM [39]?
**A.** 95%

**Q.** What about the remaining activity at 0.1 µM [40] of the same molecule?
**A.** 88%

**Q.** What about the remaining activity at 0.1 µM [41] of the same molecule?
**A.** 95%

**Q.** What about the remaining activity at 0.1 µM [42] of the same molecule?
**A.** 91%

**Q.** What about the remaining activity at 0.1 µM [43] of the same molecule?
**A.** 26%
